# In ChEMBL document CHEMBL1124116 (J Med Chem, 1988):
# Target: T1, Cholesterol side-chain cleavage enzyme, mitochondrial (Bos taurus, UniProt P00189)
# T1 sequence (P00189 whole entry): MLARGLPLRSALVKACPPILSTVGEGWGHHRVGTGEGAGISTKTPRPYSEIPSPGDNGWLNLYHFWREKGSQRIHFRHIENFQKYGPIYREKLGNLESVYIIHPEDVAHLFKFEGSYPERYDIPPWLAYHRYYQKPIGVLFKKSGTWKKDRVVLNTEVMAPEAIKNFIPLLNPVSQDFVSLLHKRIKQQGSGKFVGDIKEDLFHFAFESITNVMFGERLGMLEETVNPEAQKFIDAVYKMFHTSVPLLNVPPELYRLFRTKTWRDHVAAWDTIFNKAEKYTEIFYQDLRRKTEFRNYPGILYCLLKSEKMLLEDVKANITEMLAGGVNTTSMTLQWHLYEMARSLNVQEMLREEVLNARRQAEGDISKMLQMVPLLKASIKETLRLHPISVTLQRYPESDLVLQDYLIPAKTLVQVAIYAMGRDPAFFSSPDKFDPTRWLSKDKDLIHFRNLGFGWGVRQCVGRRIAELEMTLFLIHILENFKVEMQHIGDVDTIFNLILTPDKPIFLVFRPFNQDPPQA
# Settings: read-out: I50
row,IC50,Compound
1,310 µM,CC(C)CN1C(=O)C2CC2(c2ccc(N)cc2)C1=O (stereo not drawn)
2,294 µM,CC(C)(C)CN1C(=O)C2CC2(c2ccc(N)cc2)C1=O (stereo not drawn)
3,290 µM,Nc1ccc(C23CC2C(=O)N(Cc2ccccc2)C3=O)cc1 (stereo not drawn)
4,320 µM,CC(C)N1C(=O)C2CC2(c2ccc(N)cc2)C1=O (stereo not drawn)
5,292 µM,C#CCN1C(=O)C2CC2(c2ccc(N)cc2)C1=O (stereo not drawn)
6,460 µM,CN1C(=O)C2CC2(c2ccc(N)cc2)C1=O (stereo not drawn)
7,274 µM,C=CCN1C(=O)C2CC2(c2ccc(N)cc2)C1=O (stereo not drawn)
8,305 µM,CCN1C(=O)C2CC2(c2ccc(N)cc2)C1=O (stereo not drawn)
